The values that follow come from PubChem BioAssay (NCI).

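Interpolation was linear, between the two tested concentrations surrounding the appropriate level; five concentrations were tested over 48 hours in 96-well plates. Here, GI50 denotes the concentration required for 50% inhibition of growth. TGI is the concentration that stops growth completely.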

What all share (test): inhibition of tumour cell growth, NCI panel, 48 h
Assay [1] relates to HL-60(TB) leukemia.
Assay [2] deals with MDA-MB-435.
Assay [3] concerns 786-0 renal.
For assay [4], the system named is SK-MEL-2 melanoma.
Assay [5] has as its system A549 NSCLC.
Assay [6] has as its system NCI-H226 lung.
The test system of assay [7] is NCI-H522 lung.
The subject of assay [8] is SK-MEL-5 melanoma.
In assay [9] the test system is OVCAR-5 ovarian.
Assay [10] relates to HT29 colon.

As for `COc1ccc(NC(=O)COc2ccccc2)c(C(N)=O)c1`, the GI50 in assay [1] was 0.368 µM; in assay [2] it was 0.156 µM; in assay [3], 2.18 µM; in [4] it was 0.729 µM; in assay [5], 1.09 µM; in [6] it was 20.9 µM. Also, the GI50 is 0.812 µM in assay [7], 1.11 µM in [8], 7.14 µM in assay [9] and 0.43 µM in assay [10]. The TGI in assay [1] was > 100 µM; in assay [2], 0.845 µM; in assay [3], 49.4 µM; in assay [4] it was > 83.2 µM; in assay [5], > 100 µM; in assay [6] it was > 100 µM. Further, the TGI was 13.3 µM in assay [7], > 76.2 µM in assay [8], > 100 µM in [9] and > 100 µM in assay [10].
For `CC[C@]12C=CCN3CC[C@@]4(c5ccc(OC)cc5N(C)[C@H]4[C@@](O)(C(=O)OC)[C@@H]1OC(=O)CCCC[P+](c1ccccc1)(c1ccccc1)c1ccccc1)[C@@H]32`, the GI50 in assay [1] was 0.34 µM; in assay [2], 0.359 µM; in assay [3] it was 2.33 µM; in assay [4] it was 0.478 µM; in assay [5], 1.86 µM; in assay [6] it was 2.12 µM. Besides, the GI50 in assay [7] is 0.295 µM; in assay [8] it was 1.69 µM; in [9], 1.82 µM; in assay [10], 0.441 µM. Moreover, the TGI in [1] was 1.15 µM; in assay [2], 1.31 µM; in [3], 6.74 µM; in [4], 1.45 µM; in [5], 10.2 µM; in assay [6], 9.74 µM. Besides, the TGI was determined as 1.77 µM in assay [7], 3.08 µM in assay [8], 12.5 µM in assay [9] and 5.48 µM in assay [10].
`CC(C)(C)n1nc(C2CC2)cc1NC(=O)Nc1ccc(Cl)cc1`: the TGI in [1], in [2], in assay [3], in [4], in assay [5] and in [6] was > 100 µM each time. Further, the TGI in assay [7], in assay [8], in [9] and in assay [10] was > 100 µM each time.
As to `CCCCCCCC(=O)SCC/C=C/[C@@H]1CC(=O)NCc2cccc(n2)C2=N[C@@](C)(CS2)C(=O)N[C@@H](C(C)C)C(=O)O1`, the GI50 in assay [1] is 0.126 µM; in assay [2], 0.0292 µM; in assay [3] it was 0.0989 µM; in assay [4], 0.0369 µM; in assay [5], 0.0362 µM; in assay [6], 0.21 µM. Also, the GI50 was 0.0192 µM in assay [7], 0.0271 µM in [8], 0.0254 µM in assay [9] and 0.0256 µM in assay [10]. The TGI was > 33.3 µM in assay [1]; > 12.5 µM in [2]; > 33.3 µM in assay [3]; 0.881 µM in [4]; > 33.3 µM in [5]; > 9.23 µM in assay [6]. For the same compound, the TGI was 0.845 µM in assay [7], 0.115 µM in assay [8], > 33.3 µM in assay [9] and > 33.3 µM in assay [10].
As to `NNC(=O)C(O)C(O)C(O)CO` (stereo not given), the TGI in assay [1], in assay [2], in assay [3], in assay [4], in assay [5] and in assay [6] was > 100 µM throughout. In addition, the TGI in assay [7], in [8], in assay [9] and in [10] was > 100 µM in each case.
For the compound `O=C1/C(=N/N=C(c2ccccc2)c2ccccc2)c2ccccc2-c2ccccc21`, the TGI in assay [1], in assay [2], in assay [3], in [4], in assay [5] and in [6] was > 100 µM in each case. Moreover, the TGI in assay [7], in assay [8], in assay [9] and in assay [10] was > 100 µM throughout.
Consider `COc1ccc(C2CC(c3ccc4ccccc4c3)=NN2/C=C2\SC(=S)N(NC(=O)Cc3ccccc3Nc3c(Cl)cccc3Cl)C2=O)cc1` (stereo not given), for which the GI50 is 0.404 µM in assay [1]; 0.221 µM in assay [2]; 0.508 µM in [3]; 2.95 µM in assay [4]; 0.507 µM in assay [5]; 1.14 µM in assay [6]. The GI50 in assay [7] was 0.372 µM; in assay [8], 0.484 µM; in assay [9] it was 1.74 µM; in [10] it was 2.3 µM. The TGI in [1] was 2.89 µM; in assay [2], 0.547 µM; in [3] it was > 38.1 µM; in assay [4], 18.8 µM; in assay [5], > 47.2 µM; in [6], > 32.3 µM. Moreover, the TGI in assay [7] is 4.76 µM; in assay [8], > 36.9 µM; in [9], > 45.6 µM; in assay [10], > 26.3 µM.
Take `CN(C)c1ccc(/C=N/NC(=O)CSc2nc3sc4c(c3c(=O)n2-c2ccccc2)CCCCC4)cc1`: the GI50 in [1] is > 100 µM; in [2] it was 5.07 µM; in assay [3], 8.26 µM; in [4] it was 15.5 µM; in [5] it was 4.25 µM; in assay [6], 4.26 µM. In addition, the GI50 in assay [7] is 3.89 µM; in assay [8], 3.44 µM; in assay [9] it was 6.55 µM; in assay [10], 4.31 µM. Moreover, the TGI was > 100 µM in assay [1]; > 100 µM in assay [2]; 39.1 µM in assay [3]; 59.3 µM in assay [4]; > 100 µM in [5]; > 100 µM in assay [6]. For the same compound, the TGI in assay [7], in assay [8], in [9] and in [10] was > 100 µM throughout.
For `COc1ccc(-c2cnc(SCC(=O)c3c(C)n(C)n(-c4ccccc4)c3=O)n2-c2ccc(OC)cc2)cc1`, the GI50 is 36.8 µM in assay [1]; > 50 µM in assay [2]; > 50 µM in [3]; > 50 µM in assay [4]; > 50 µM in assay [5]; > 50 µM in assay [6]. Besides, the GI50 in [7] was > 50 µM; in assay [8], 22.3 µM; in assay [9] it was > 50 µM; in assay [10] it was > 50 µM. The TGI in assay [1], in [2], in assay [3], in assay [4], in assay [5] and in [6] was > 50 µM each time. Besides, the TGI in assay [7], in [8], in assay [9] and in assay [10] was > 50 µM each time.
In the case of `COc1cc(/C=C/C(=O)c2ccc(F)cc2)ccc1OCCCCOc1cc2c(cc1OC)C(=O)N1CCCC1C=N2` (stereo not given), the GI50 in assay [1] is 0.477 µM; in assay [2], 2.71 µM; in assay [3], 0.989 µM; in assay [4] it was 1.33 µM; in assay [5], 2.46 µM; in assay [6] it was 0.683 µM. The GI50 in [7] was 1.64 µM; in assay [8], 0.758 µM; in [9], 3.85 µM; in assay [10], 0.895 µM. Also, the TGI was 1.21 µM in assay [1]; 8.01 µM in assay [2]; 7.74 µM in assay [3]; 12.8 µM in assay [4]; > 21.9 µM in assay [5]; 1.7 µM in assay [6]. For the same compound, the TGI in assay [7] was 4.35 µM; in assay [8], 5.37 µM; in assay [9] it was > 26.6 µM; in [10], > 20.4 µM.
`O=c1[nH]ccc2nc(N3CCC(O)CC3)nc(Nc3ccc(N4CCOCC4)cc3)c12`: the GI50 is > 100 µM in [1]; 0.744 µM in assay [2]; > 22.6 µM in [3]; 2.27 µM in assay [4]; 3.9 µM in assay [5]; > 100 µM in assay [6]. For the same compound, the GI50 was > 100 µM in [7], 3.69 µM in assay [8], 3.38 µM in assay [9] and 1.06 µM in assay [10]. For the same compound, the TGI in [1], in assay [2], in [3], in [4], in assay [5] and in assay [6] was > 100 µM throughout. The TGI was > 100 µM in assay [7], > 50.8 µM in [8], > 100 µM in assay [9] and > 100 µM in [10].
For the compound `Cc1cc(C)nc(NS(=O)(=O)c2ccc(Nc3nc4nc(NCc5ccccc5)nc(-c5ccc(O)cc5)c4c(=O)[nH]3)cc2)n1`, the GI50 was 8.41 µM in [1]; 21.3 µM in assay [2]; 66.7 µM in [3]; 20.7 µM in assay [4]; 18.9 µM in assay [5]; 55.8 µM in assay [6]. Also, the GI50 is 2.61 µM in assay [7], 25.7 µM in assay [8], > 100 µM in assay [9] and 57.9 µM in assay [10]. The TGI is 36.2 µM in [1]; > 100 µM in assay [2]; > 100 µM in assay [3]; > 100 µM in [4]; > 100 µM in [5]; > 100 µM in assay [6]. Also, the TGI in assay [7] is 22.8 µM; in assay [8] it was > 100 µM; in assay [9], > 100 µM; in assay [10] it was > 100 µM.
